From PubChem BioAssay AID1963983 (Molecular Pharmacology Branch, DTP, NCI, 2024)

Test system: 186277-243-T-J2-PDC multi-cell spheroid viability
Assay: Anticancer human tumor 186277-243-T-J2-PDC patient-derived colon adenocarcinoma cell line growth inhibition [PI3K]
Conditions: for IC50: curve of first compound; for viability, T/C: stronger effect = lower value
From the text: Combinatorial screen of targeted agents with the PI3K inhibitors inavolisib, alpelisib, duvelisib, and copanlisib in multi-cell type tumor spheroids
A high-throughput screen of multi-cell type tumor spheroids was designed to identify active combinations of targeted small molecules and PI3K pathway inhibitors. Complex spheroids include a stromal component modeled by human endothelial cells (HUVEC) and fibroblasts modeled by human mesenchymal stem cells (MSCs). The concentration ranges selected for each drug and investigational agent were based upon clinically achievable concentrations if the clinical Cmax of the agent was known.
Compounds. The drugs and investigational agents: inavolisib (NSC800729), alpelisib (NSC765974), duvelisib (NSC772469), copanlisib (NSC816437), ipatasertib (NSC767898), afuresertib (NSC778305), talazoparib (NSC767125), sapanisertib (NSC764658), selumetinib (NSC741078), tovorafenib (DAY101, NSC766906), vemurafenib (NSC761431), ravoxertinib (NSC781343), sotorasib (NSC818433), MRTX1133 (NSC 836407), abemaciclib (NSC 768073), palbociclib (NSC758247), venetoclax (NSC 766270), SY5609 (NSC837396), enzalutamide (NSC755605), and darolutamide (NSC825331), were obtained from the National Cancer Institute (NCI) Developmental Therapeutics Program Chemical Repository. The FDA-approved anticancer drug set is available from the NCI Developmental Therapeutics Program. […] The stock solutions were prepared in dimethyl sulfoxide (DMSO, Sigma-Aldrich, St. Louis, MO, cat. D2650) at 800-fold the tested concentration and stored at -70 degrees C prior to their use. All drugs and investigational agents were tested over a range starting from a high concentration at or near the clinical Cmax and decreasing in half-log increments. If the clinical Cmax for an agent had not been determined, the highest concentration tested was 10 microM.
Cell Culture. All cells were maintained in an incubator at 37 degrees C and 5% CO2 with 95% humidity. The PDC lines were cultured according to standard operating procedures established by the NCI PDMR (https://pdmr.cancer.gov/sops/default.htm). All PDCs were thawed and cultured in Matrigel-coated flasks prepared with a working solution of 1X Ham's F-12 nutrient mix, without supplementation (Invitrogen, Waltham, MA, cat. 11765054), 100 U/mL penicillin-streptomycin (Invitrogen, cat. 15140122), and 2.5% Matrigel (Corning Inc., Corning, NY, cat. 354248) for the first three passages. The 354836-022-R-J1-PDC, 475296-252-R-J1-PDC, and 997726-040-R-J2-PDC lines were cultured in 6A media, which includes advanced DMEM/F-12 (Thermo Fisher Scientific, cat. 12634028), 10 mM HEPES (Thermo Fisher Scientific, cat. 15630080), 1X GlutaMAX supplement (Thermo Fisher Scientific, cat. 35050061), 0.1 mg/mL primocin (InvivoGen, San Diego, CA, cat. ant-pm-2), 10% defined fetal bovine serum, heat inactivated (HyClone Laboratories Inc., Logan, UT, cat. SH30070.03HI), 50% L-WRN conditioned media (ATCC, cat. CRL-3276), 1.25 mM N-Acetyl-L-cysteine (Sigma-Aldrich, cat. A9165), 10 mM nicotinamide (Sigma-Aldrich, cat. N0636), 1X B-27 supplement (Thermo Fisher Scientific, cat. 17504044), 1X N-2 supplement (Thermo Fisher Scientific, cat. 17502048), and 10 microM Y-27632 dihydrochloride (Tocris Bioscience, Bristol, United Kingdom, cat. 1254). The 624824-186-R-J2-PDC line was cultured in 6C/Colon 1B media, which includes all 6A media components plus 50 ng/mL human EGF recombinant protein (Thermo Fisher Scientific, cat. PHG0311). […]
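Note: spheroids exposed to compounds for seven days before viability reading.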
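Throughout, for viability, T/C: 100% = DMSO vehicle control viability.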

`CCN1CCN(Cc2ccc(Nc3ncc(F)c(-c4cc(F)c5nc(C)n(C(C)C)c5c4)n3)nc2)CC1` + CC(Nc1ccc2c(c1)OCCn1cc(N3C(=O)OCC3C(F)F)nc1-2)C(N)=O was tested, and the IC50 (second compound 0.00316 µM) was over 1000 nM, the IC50 (second compound 0.01 µM) was over 1000 nM and the IC50 (second compound 0.0316 µM) was over 1000 nM. It also gave an IC50 (second compound 0.1 µM) of over 1000 nM, an IC50 (second compound 0.316 µM) of 40.3 nM and an IC50 (second compound 1 µM) of under 3.16 nM. It also gave a viability, T/C (second compound 0.00316 µM, first compound 0.00316 µM) of 99.4%, a viability, T/C (second compound 0.00316 µM, first compound 0.01 µM) of 94.3% and a viability, T/C (second compound 0.00316 µM, first compound 0.0316 µM) of 102%. For the same molecule, the viability, T/C (second compound 0.00316 µM, first compound 0.1 µM) was 143%, the viability, T/C (second compound 0.00316 µM, first compound 0.316 µM) was 165% and the viability, T/C (second compound 0.00316 µM, first compound 1 µM) was 128%. The viability, T/C (second compound 0.01 µM, first compound 0.00316 µM) was 124%, the viability, T/C (second compound 0.01 µM, first compound 0.01 µM) was 85% and the viability, T/C (second compound 0.01 µM, first compound 0.0316 µM) was 106%. It also gave a viability, T/C (second compound 0.01 µM, first compound 0.1 µM) of 132%, a viability, T/C (second compound 0.01 µM, first compound 0.316 µM) of 142% and a viability, T/C (second compound 0.01 µM, first compound 1 µM) of 133%. The viability, T/C (second compound 0.0316 µM, first compound 0.00316 µM) was 98.9%, the viability, T/C (second compound 0.0316 µM, first compound 0.01 µM) was 93.3% and the viability, T/C (second compound 0.0316 µM, first compound 0.0316 µM) was 107%. It also gave a viability, T/C (second compound 0.0316 µM, first compound 0.1 µM) of 113%, a viability, T/C (second compound 0.0316 µM, first compound 0.316 µM) of 124% and a viability, T/C (second compound 0.0316 µM, first compound 1 µM) of 103%. The viability, T/C (second compound 0.1 µM, first compound 0.00316 µM) was 105%, the viability, T/C (second compound 0.1 µM, first compound 0.01 µM) was 95.1% and the viability, T/C (second compound 0.1 µM, first compound 0.0316 µM) was 83%. The viability, T/C (second compound 0.1 µM, first compound 0.1 µM) was 81.8%, the viability, T/C (second compound 0.1 µM, first compound 0.316 µM) was 75.9% and the viability, T/C (second compound 0.1 µM, first compound 1 µM) was 62.5%. It also gave a viability, T/C (second compound 0.316 µM, first compound 0.00316 µM) of 67.6%, a viability, T/C (second compound 0.316 µM, first compound 0.01 µM) of 74.8% and a viability, T/C (second compound 0.316 µM, first compound 0.0316 µM) of 52.5%. For the same molecule, the viability, T/C (second compound 0.316 µM, first compound 0.1 µM) was 42.8%, the viability, T/C (second compound 0.316 µM, first compound 0.316 µM) was 42.5% and the viability, T/C (second compound 0.316 µM, first compound 1 µM) was 36.2%. It also gave a viability, T/C (second compound 1 µM, first compound 0.00316 µM) of 37.3%, a viability, T/C (second compound 1 µM, first compound 0.01 µM) of 37.8% and a viability, T/C (second compound 1 µM, first compound 0.0316 µM) of 28.3%. For the same molecule, the viability, T/C (second compound 1 µM, first compound 0.1 µM) was 28%, the viability, T/C (second compound 1 µM, first compound 0.316 µM) was 31% and the viability, T/C (second compound 1 µM, first compound 1 µM) was 24.5%.
